Like-named read-outs stand apart in the source and are kept apart here.
Assays:
[1] = Pharmacokinetic study in mice (IV and PO), plasma; format: in vivo, mouse; settings: for AUC(0-t) / half-life / AUC(0-inf) / Cmax / Cmax at 5 min: female, C57BL/6; for AUC(0-t) / half-life / AUC(0-inf) / Cmax / AUC—% Extrap—obs / Cl_obs / Vz_obs / Cmax at 5 min / AUC_% Extrap_obs: mouse plasma; for Cmax: read-out: Cmax (5 min); for Rsq: Mouse Plasma, fit of NCA
Experimental: Pharmacokinetic analysis of compounds was conducted following bolus intravenous (IV) or bolus oral (PO) gavage in mice. Female mice (C57BL/6) in the 17-26 g range were weighed, and then administered an individually prescribed dose volume based on body weight of formulated compound via the intravenous (IV; tail vein) or oral gavage (PO) route (IV 5 mL/kg; PO 10 mL/kg). At selected timepoints post administration, blood was collected into vials with anticoagulant, processed for plasma by centrifugation, and then kept frozen ([…]) until analysis.
The in-vivo study plasma samples were analyzed using Ultra Performance Liquid Chromatography (UPLC) with tandem mass spectrometry (MS/MS) detection in multiple reaction monitoring (MRM) mode. A generic bioanalytical method involving plasma sample extraction and cleanup by protein precipitation with acetonitrile was used followed by UPLC-MS/MS analysis.
A brief example of a generic bioanalytical UPLC-MS/MS method used for analysis of compounds in the in-vivo study plasma samples is as follows. Plasma samples were spiked with internal standard prior to extraction and cleanup by protein precipitation with ice cold acetonitrile containing 0.1% (v/v) ammonium hydroxide at a ratio of 3:1 (solvent:plasma) and centrifuged at 18213 rcf for 15 minutes at 4° C. to pellet precipitates. Aliquots of supernatants were transferred to a 96-well plate and evaporated to dryness at 40° C. under a stream of nitrogen gas. Samples were reconstituted in 50:50 acetonitrile/10 mM ammonium acetate buffer pH 8, mixed thoroughly and analyzed using Ultra Performance Liquid Chromatography (UPLC) with tandem mass spectrometry (MS/MS) detection in multiple reaction monitoring (MRM) mode. Matrix-matched calibration standards and quality control (QC) samples were prepared in naïve C57Bl/6 mouse plasma. The UPLC column used was Waters Acquity UPLC BEH C18 1.7 um, 2.1 mm×50 mm (with guard column). The UPLC mobile phase consisted of: Mobile phase A: 10 mM ammonium acetate in Water pH 8, and Mobile phase B: Acetonitrile. Separation was accomplished with a linear gradient of 5% mobile phase B to 95% mobile phase B in 2 min, and a flow rate of 0.35 mL/min. The MS/MS data acquisition was accomplished using 3 MRM Transitions in ESI+ mode. Parent ion mass 508.37 m/z-to-Daughter ions (m/z) 117.05, 232.13 and 270.22. The quantitation of concentrations in test samples was achieved by matrix-matched calibration with normalization using an internal standard. Data acquisition and analysis were performed using Waters MassLynx software with TargetLynx application manager.
Estimation of PK parameters was performed using independent noncompartmental model method by PHOENIX WinNonlin software.

FaDu tumour xenograft = experiment: Clonogenic Survival, FaDu tumour xenograft-bearing Rag2M mice, compound ± radiation (CS-ER); format: in vivo, mouse; settings: 30 mpk + 8 Gy
Experimental: FaDu tumour xenograft-bearing Rag2M mice were treated with single administrations of test compounds at indicated doses±radiation as indicated, at time 0.
Mice were irradiated at 1 h post compound administration (unless otherwise indicated), with 300 KV X-rays and a 10 mA current from a Precision XRAD 300 machine (USA) with a beam-hardening filter (2 mm Al+0.25 mm Cu+0.75 mm Sn) and an adjustable site to specimen distance (SSD) at a dose of 8-10 Gy, delivered at a rate of ˜1.05 Gy/min.
Mice were terminated at times after irradiation as indicated, and tumour tissues excised. A portion of tumour approximately 300-500 mg was briefly minced using sterile scissors and placed in a pre-weighed gentleMACS C tube (Miltenyi Biotec cat #130-093-237) and weighed with combined tumour+tube mass recorded. A 5 mL aliquot of enzyme cocktail comprising of trypsin/DNase/collagenase/EDTA-Na2 in PBS (1 mg/ml trypsin+0.26 mg/ml DNase+0.21 mg/ml collagenase+2 mM EDTA-Na2) was added to the tube, which is then run on the gentleMACS Dissociator disaggregation system. Tubes were then incubated at 37° C. and continually rotated for 20 min before again running on the gentleMACS Dissociator program. Samples were then diluted with 5 ml MEM medium containing 5% FBS and filtered (Falcon cell strainer 100 μm, cat #352360). After centrifugation (1100 rpm for 6 minutes at 4° C.) supernatant was aspirated and the cells resuspended in 4 ml cold growth medium (MEM+10% FBS)+50 ul DNase (5 mg/ml DNase solution). Cell numbers were counted from the same cell solution using a hemacytometer. Appropriate dilutions (control: 10,000 cells/ml; 8Gy: 400,000 cells/ml; drug+radiation treated; 500,000 cells/ml) were made and cells then plated in triplicate: control: 100 μl and 300 μl (1000 and 3000 cells/6 cm tissue culture plate); 8Gy: 30 μl, 105 μl and 350 μl (12000, 42000 cells/6 cm plates and 140000 cells/10 cm plate); drug+8Gy: 70 μl, 300p, 1.2 ml (35000 and 150000 cells/6 cm plates and 600000 cells/10 cm plates—only duplicate). Plates were incubated at 37° C. (in a 5% CO2, 5% O2 and balance N2 environment) for 14 days. For a final and accurate automated live-cell counting a solution of Hoechst33342 (0.01 mg/ml)+Propidium Iodide (0.004 mg/ml) in 0.9% saline was mixed with an appropriate cell number dilution of the samples in 96 well plates (50 ul staining solution+50 ul cell suspension of 10000 cells/ml) and images are taken of the wells and cell numbers are calculated by a computer program.
After 14 days plates were removed from the incubator, rinsed with PBS and stained with cold 2 g/L Malachite green oxalate salt solution (Sigma-Aldrich, cat #M6880) for 30 minutes at room temperature. Plates were rinsed with distilled water and dried. Pictures were obtained of the plates and colonies consisting of 50 or more cells were counted using a Stuart Scientific colony counter.
All plates with colonies were analyzed except when colony numbers were so high that the edges of individual colonies could not be determined accurately. Plating efficiency (PE) of each tumour sample was calculated first: PE is a ratio of the number of colonies to the number of cells seeded (sum of all the colonies countable in all the plates of the same sample divided by the sum of cells plated in the same plates). The PE of control tumours was averaged for the calculation of surviving fraction (SF): SF is based on the number of colonies formed in drug and/or radiation treated cells relative to that of untreated control (PE of treated tumor sample divided by PE of control). All treated data points were compared separately to the average of the controls. Finally a Clonogenic Survival Enhancement Ratio (CS-ER) was calculated: the SF of irradiated control groups were divided by the SF of treatment groups to determine treatment group-specific CS-ER values, and these were assigned scores based on defined response ranges: values>6=A, 4-6=B, <4=C.

SMILES: CN(C)C(=O)Cn1ccc2nc(N[C@H]3CC[C@@H](Oc4nc(N5CCOCC5)cc5ncccc45)CC3)ncc21 [Compound 86, N,N-Dimethyl-2-(2-(((1s,4s)-4-((7-morpholino-1,6-naphthyridin-5-yl)oxy)cyclohexyl)amino)-5H-pyrrolo[3,2-d]pyrimidin-5-yl)acetamide]
- AUC(0-t) ([1]; IV, 3 mg/kg): 4100 ng·h/mL
- half-life ([1]; IV, 3 mg/kg): 1.77 h
- AUC(0-inf) ([1]; IV, 3 mg/kg, read-out: AUCINF—obs): 4160 ng·h/mL
- Cmax ([1]; IV, 3 mg/kg): 6450 ng/mL
- AUC(0-t) ([1]; PO, 10 mg/kg): 2620 ng·h/mL
- half-life ([1]; PO, 10 mg/kg): 2.92 h
- AUC(0-inf) ([1]; PO, 10 mg/kg, read-out: AUCINF—obs): 2630 ng·h/mL
- Cmax ([1]; PO, 10 mg/kg): 589 ng/mL
- AUC—% Extrap—obs ([1]; IV, 3 mg/kg): 1.44%
- Cl_obs ([1]; IV, 3 mg/kg): 12.022 mL/min/kg
- Vz_obs ([1]; IV, 3 mg/kg): 1.8426 L/kg
- AUC—% Extrap—obs ([1]; PO, 10 mg/kg): 0.47%
- Cl_obs ([1]; PO, 10 mg/kg): 63.328 mL/min/kg
- Vz_obs ([1]; PO, 10 mg/kg): 16.019 L/kg
- F ([1]; mouse, PO, 10 mg/kg): 19%
- CS-ER Range Score (FaDu tumour xenograft; 2 h): B B (4-6=B)
- CS-ER Range Score (FaDu tumour xenograft; 4 h): B B (4-6=B)

SMILES: CN(C)C(=O)Cn1c(=O)n(C2CCOCC2)c2nc(N[C@H]3CC[C@@H](Oc4nc(N5CCOCC5)cc5ncccc45)CC3)ncc21 [Compound 97, N,N-Dimethyl-2-(2-(((1s,4s)-4-((7-morpholino-1,6-naphthyridin-5-yl)oxy)cyclohexyl)amino)-8-oxo-9-(tetrahydro-2H-pyran-4-yl)-8,9-dihydro-7H-purin-7-yl)acetamide]
- Rsq ([1]; IV, 3 mg/kg): 0.98
- Rsq ([1]; PO, 10 mg/kg): 0.98
- F ([1]; Mouse, PO 10 mg/kg vs IV 3 mg/kg): 47%
- AUC(0-t) ([1]; IV, 3 mg/kg): 4340 ng·h/mL
- Cmax at 5 min ([1]; IV, 3 mg/kg): 4860 ng/mL
- half-life ([1]; IV, 3 mg/kg): 2.21 h
- AUC(0-inf) ([1]; IV, 3 mg/kg, read-out: AUCINF_obs): 4380 ng·h/mL
- AUC(0-t) ([1]; PO, 10 mg/kg): 6770 ng·h/mL
- Cmax at 5 min ([1]; PO, 10 mg/kg): 2520 ng/mL
- half-life ([1]; PO, 10 mg/kg): 2.07 h
- AUC(0-inf) ([1]; PO, 10 mg/kg, read-out: AUCINF_obs): 6770 ng·h/mL
- AUC_% Extrap_obs ([1]; IV, 3 mg/kg): 0.77%
- Cl_obs ([1]; IV, 3 mg/kg): 11.43 mL/min/kg
- Vz_obs ([1]; IV, 3 mg/kg): 2.18741 L/kg
- AUC_% Extrap_obs ([1]; PO, 10 mg/kg): 0.03%
- Cl_obs ([1]; PO, 10 mg/kg): 24.6043 mL/min/kg
- Vz_obs ([1]; PO, 10 mg/kg): 4.41523 L/kg
- CS-ER Range Score (FaDu tumour xenograft; 2 h): C (<4=C)
- CS-ER Range Score (FaDu tumour xenograft; 4 h): B (4-6=B)

— US20240239790A1, “7-Morpholino-1,6-Naphthyridin-5-yl Derivatives and Pharmaceutical Compositions Thereof Useful as DNA-PK Inhibitor” (adMare Therapeutics Society, priority 2021, published 2024)
